What was measured:
[1] = target: T1, N-his8-TEV-hPARG (389-976) (Homo sapiens, UniProt Q86W56); experiment: PARG Biochemical Enzymatic Assay (PARG inhibition HTRF assay); details: 62.5 pM PARG, 5 nM Biotin-Parylated PARP1 substrate, 60 minutes preincubation, 10 minutes reaction at 23 °C
T1 construct: N-his8-TEV-hPARG (389-976); His8 (N); TEV protease cleavage site (N); made in house; host or cells: E. coli BL21(DE3)
Protocol: PARG Biochemical Enzymatic Assay
TEV-His8-PolyADP-Ribose Polymerase 1 (379-1014) (PARP1) and N-his8-TEV-hPARG (389-976) were used to transform BL21(DE3) competent cells followed by growth for 1 hour at 37 °C and plating on Kanamycin resistant agar plates. A single colony was then inoculated into 1 ml of Luria Broth and expansion into a 1 liter scale for growth at 37 °C for 3 hours. Expression was induced via 0.2 mM IPTG induction for 20 hours at 16 °C in BL21(DE3) E. coli. Purification was then performed using a Nickel column, size exclusion chromatography and HPLC analysis.
For substrate preparation, […] nicked DNA and 2 μM PARP1 protein were mixed for 10 minutes at 25 °C 10 μM biotin-NAD+ and 100 μM NAD+ were then added and incubated for 60 minutes at 30 °C to yield PARylated PARP1 substrate.
For compound screening, compounds were serially diluted to a 3× final concentration in assay buffer (Tris pH7.5 50 mM, KCl 50 mM, Tween-20 0.01%, BSA 0.1 mg/ml, EDTA 3 mM, EGTA 0.4 mM, DTT 1 mM) containing 1% DMSO. A top concentration of 1.5 μM for a 10-point dose response curve using a 1:3 dilution curve was used. 2.5×PARG (156.25 pM working concentration, 62.5 pM final concentration) was prepared in assay buffer and 4 ul added to a 384 well assay plate containing 2 μl of serially diluted compound. The plate was then centrifuged for 10 seconds and incubated for 60 minutes at 23 °C. 4 μl of 2.5× Biotin-Parylated PARP1 (12.5 nM working concentration, 5 nM final concentration) was then added to the plate and incubated for 10 minutes at 23 °C. 4 μl of […] Detection reagent containing 0.44 μg/ml of Streptavidin-Europium cryptate and 4 μg/ml of anti-6His-XL665 monoclonal antibody was added to the plate and incubated for 60 minutes at 23 °C. The Homogeneous Time Resolved Fluorescent (HTRF) signal was then measured on an Envision plate reader using and excitation wavelength of 337 nm and emission wavelengths of 615 nm and 665 nm. Normalized percent inhibition was then calculated using the following equation: % Inhibition normalized=(compound signal-min signal)/(max signal-min signal)*100%, where Maximum signal was substrate only wells and Minimum signal was enzyme and substrate well. IC50 was calculated by fitting % Inhibition values and log of compound concentrations to nonlinear regression (log(inhibitor) vs. response—Variable slope(four parameters)) with GraphPad 9.4.1
For biochemical activity, bracket is denoted as: A<100 nM; 100 nM<B<500 nM; C>500 nM

Kuramochi cells = experiment: Cellular Viability Assay (5 day Kuramochi cell viability, CellTiter-Glo); format: cell-based; details: 5 days, 37 °C, growth inhibition relative to Day 0 (T0) and DMSO
Protocol: Kuramochi cells were seeded at a density of 1000 cells per well in a 384-well, white, sterile, clear bottom plate, using a Multidrop liquid dispenser and incubated for 24 hours at 37 °C in a 5% CO2 humidified environment. 24 hours later, compounds were added starting at a top dose of 10 μM for a 9-point dose response curve at a 1:3 dilution using an iDOT HT liquid handler and incubated for 5 days at 37 °C in a 5% CO2 humidified environment. After 5 days and at Day 0, plates were incubated at room temperature for 30 minutes followed by the addition of 30 μl of CellTiter-Glo Reagent. Plates were then mixed for 10 minutes on an orbital shaker followed by incubation at room temperature for 20 minutes. Luminescence was then read using the Envision plate reader. Percent Growth Inhibition was then calculated using the following equation: Percent Growth Inhibition normalized=100−(compound signal−T0)/(max signal−T0)*100%, where Max Signal refers to the DMSO only treated cells and T0 refers to the Day0 viability measurement. Growth Inhibition 50 was then calculated using the following equation: Y=Bottom+(Top−Bottom)/(1+10^((Log IC50−X)*hillslope)).
For cell activity, bracket is denoted as: A<1 uM; 1 uM<B<5 uM; C>5 uM.

T1 sequence (Q86W56 389-976): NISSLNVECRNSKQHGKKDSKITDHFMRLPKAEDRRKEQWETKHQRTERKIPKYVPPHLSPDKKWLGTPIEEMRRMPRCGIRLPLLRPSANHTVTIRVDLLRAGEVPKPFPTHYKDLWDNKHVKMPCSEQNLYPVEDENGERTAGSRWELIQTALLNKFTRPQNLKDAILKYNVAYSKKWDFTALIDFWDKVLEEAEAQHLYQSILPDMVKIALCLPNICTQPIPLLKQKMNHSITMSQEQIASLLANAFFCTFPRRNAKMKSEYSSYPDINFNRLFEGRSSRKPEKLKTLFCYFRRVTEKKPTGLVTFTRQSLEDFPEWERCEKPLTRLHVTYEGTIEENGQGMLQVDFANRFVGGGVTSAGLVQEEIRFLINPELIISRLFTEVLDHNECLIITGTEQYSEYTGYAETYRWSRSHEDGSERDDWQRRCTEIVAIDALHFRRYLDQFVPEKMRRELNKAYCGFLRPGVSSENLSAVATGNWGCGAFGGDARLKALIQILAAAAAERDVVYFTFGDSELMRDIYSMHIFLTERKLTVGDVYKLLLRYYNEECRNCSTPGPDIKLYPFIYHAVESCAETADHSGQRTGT

Row | Compound | IC50 [1] | IC50 (Kuramochi cells)
1 | CC1(NS(=O)(=O)c2cc(N3CCC4(CC3)COC4)n3ncc(-c4nc(C(F)F)cs4)c3c2)CC1 [Example 15, 3-(4-(difluoromethyl)thiazol-2-yl)-N-(1-methylcyclopropyl)-7-(2-oxa-7-azaspiro[3.5]nonan-7-yl)pyrazolo[1,5-a]pyridine-5-sulfonamide] | < 100 nM | < 1000 nM
2 | Cn1ccnc1N1CCN(c2cc(S(=O)(=O)NC3(C#N)CC3)cc3c(-c4nnc(C(F)F)s4)cnn23)CC1 [Example 16, N-(1-cyanocyclopropyl)-3-(5-(difluoromethyl)-1,3,4-thiadiazol-2-yl)-7-(4-(1-methyl-1H-imidazol-2-yl)piperazin-1-yl)pyrazolo[1,5-a]pyridine-5-sulfonamide] | < 100 nM | 1000 to 5000 nM
3 | CC(C)OC(=O)N1CCN(c2cc(S(=O)(=O)NC3(C#N)CC3)cc3c(-c4nnc(C(F)F)s4)cnn23)CC1 [Example 17, Isopropyl 4-(5-(N-(1-cyanocyclopropyl)sulfamoyl)-3-(5-(difluoromethyl)-1,3,4-thiadiazol-2-yl)pyrazolo[1,5-a]pyridin-7-yl)piperazine-1-carboxylate] | < 100 nM | < 1000 nM
4 | Cc1nnc(N2CCN(c3cc(S(=O)(=O)NC4(C#N)CC4)cc4c(-c5nnc(C(F)F)s5)cnn34)CC2)s1 [Example 20, N-(1-cyanocyclopropyl)-3-[5-(difluoromethyl)-1,3,4-thiadiazol-2-yl]-7-[4-(5-methyl-1,3,4-thiadiazol-2-yl)piperazin-1-yl]pyrazolo[1,5-a]pyridine-5-sulfonamide] | < 100 nM | < 1000 nM
5 | CC1(NS(=O)(=O)c2cc(N3CCC4(CC3)COC4)n3ncc(-c4nc5ncccc5s4)c3c2)CC1 [Example 21, N-(1-methylcyclopropyl)-7-(2-oxa-7-azaspiro[3.5]nonan-7-yl)-3-(thiazolo[4,5-b]pyridin-2-yl)pyrazolo[1,5-a]pyridine-5-sulfonamide] | < 100 nM | < 1000 nM
6 | N#CC1(c2nnc(-c3cnn4c(N5CCC6(CC5)COC6)cc(S(=O)(=O)NC5(C(F)F)CC5)cc34)s2)CC1 [Example 23, 3-[5-(1-cyanocyclopropyl)-1,3,4-thiadiazol-2-yl]-N-[1-(difluoromethyl)cyclopropyl]-7-(2-oxa-7-azaspiro[3.5]nonan-7-yl)pyrazolo[1,5-a]pyridine-5-sulfonamide] | < 100 nM | < 1000 nM
7 | Cc1nnc(N2CCN(c3cc(S(=O)(=O)NC4(C#N)CC4)cc4c(-c5nnc(C(F)F)s5)cnn34)CC2)o1 [Example 24, N-(1-cyanocyclopropyl)-3-[5-(difluoromethyl)-1,3,4-thiadiazol-2-yl]-7-[4-(5-methyl-1,3,4-oxadiazol-2-yl)piperazin-1-yl]pyrazolo[1,5-a]pyridine-5-sulfonamide] | < 100 nM | < 1000 nM
8 | C#CC1(NS(=O)(=O)c2cc(N3CCN(C(=O)N4CC[C@H](O)C4)CC3)c3cnn(-c4nnc(C(F)F)s4)c3c2)CC1 [Example 26, 1-[5-(difluoromethyl)-1,3,4-thiadiazol-2-yl]-N-(1-ethynylcyclopropyl)-4-[4-[(3S)-3-hydroxypyrrolidine-1-carbonyl]piperazin-1-yl]indazole-6-sulfonamide] | < 100 nM | < 1000 nM
9 | CC(=O)N1CCN(c2cc(S(=O)(=O)NC3(C)CC3)cc3c2cnn3-c2nc3c(s2)C(=O)COC3)CC1 [Example 28, 4-(4-acetylpiperazin-1-yl)-N-(1-methylcyclopropyl)-1-(7-oxo-6,7-dihydro-4H-pyrano[3,4-d]thiazol-2-yl)-1H-indazole-6-sulfonamide] | 100 to 500 nM | > 5000 nM
10 | CC1(NS(=O)(=O)c2cc(-n3cc(C4(O)CCC4)cn3)c3cnn(-c4nnc(C5(O)CCC5)s4)c3c2)CC1 [Example 31, 4-[4-(1-hydroxycyclobutyl)pyrazol-1-yl]-1-[5-(1-hydroxycyclobutyl)-1,3,4-thiadiazol-2-yl]-N-(1-methylcyclopropyl)indazole-6-sulfonamide] | 100 to 500 nM | 1000 to 5000 nM
11 | CC1(NS(=O)(=O)c2cc(-n3cc(C4(C#N)CC4)cn3)c3cnn(-c4nnc(C5(O)CCC5)s4)c3c2)CC1 [Example 33, 4-(4-(1-cyanocyclopropyl)-1H-pyrazol-1-yl)-1-(5-(1-hydroxycyclobutyl)-1,3,4-thiadiazol-2-yl)-N-(1-methylcyclopropyl)-1H-indazole-6-sulfonamide] | 100 to 500 nM | 1000 to 5000 nM
12 | CC1(NS(=O)(=O)c2cc(N3CCC4(CC3)COC4)n3cnc(-c4nnc(C(F)F)s4)c3c2)CC1 [Example 34, 1-(5-(difluoromethyl)-1,3,4-thiadiazol-2-yl)-N-(1-methylcyclopropyl)-5-(2-oxa-7-azaspiro[3.5]nonan-7-yl)imidazo[1,5-a]pyridine-7-sulfonamide] | < 100 nM | < 1000 nM

Now from value to compound, other results behind:

Row | IC50 [1] | Compound | IC50 (Kuramochi cells)
13 | < 100 nM | CC1(NS(=O)(=O)c2cc(N3CCC4(CC3)COC4)n3ncc(-c4nnc(C(F)(F)F)s4)c3c2)CC1 [Example 14, N-(1-methylcyclopropyl)-7-(2-oxa-7-azaspiro[3.5]nonan-7-yl)-3-(5-(trifluoromethyl)-1,3,4-thiadiazol-2-yl)pyrazolo[1,5-a]pyridine-5-sulfonamide] | < 1000 nM
14 | < 100 nM | CCCS(=O)(=O)N1CCN(c2cc(S(=O)(=O)NC3(C#N)CC3)cc3c(-c4nnc(C(F)F)s4)cnn23)CC1 [Example 18, N-(1-cyanocyclopropyl)-3-(5-(difluoromethyl)-1,3,4-thiadiazol-2-yl)-7-(4-(propylsulfonyl)piperazin-1-yl)pyrazolo[1,5-a]pyridine-5-sulfonamide] | < 1000 nM
15 | < 100 nM | CC1(C(=O)N2CCN(c3cc(S(=O)(=O)NC4(C#N)CC4)cc4c(-c5nnc(C(F)F)s5)cnn34)CC2)CCC1 [Example 19, N-(1-cyanocyclopropyl)-3-[5-(difluoromethyl)-1,3,4-thiadiazol-2-yl]-7-[4-(1-methylcyclobutanecarbonyl)piperazin-1-yl]pyrazolo[1,5-a]pyridine-5-sulfonamide] | < 1000 nM
16 | < 100 nM | N#CC1(NS(=O)(=O)c2cc(N3CCN(C(=O)N4CC[C@H](F)C4)CC3)n3ncc(-c4nnc(C(F)F)s4)c3c2)CC1 [Example 22, (S)-N-(1-cyanocyclopropyl)-3-(5-(difluoromethyl)-1,3,4-thiadiazol-2-yl)-7-(4-(3-fluoropyrrolidine-1-carbonyl)piperazin-1-yl)pyrazolo[1,5-a]pyridine-5-sulfonamide] | < 1000 nM
17 | < 100 nM | N#CC1(c2nnc(-n3ncc4c(N5CCC6(CC5)COC6)cc(S(=O)(=O)NC5(C(F)F)CC5)cc43)s2)CC1 [Example 32, 1-(5-(1-cyanocyclopropyl)-1,3,4-thiadiazol-2-yl)-N-(1-(difluoromethyl)cyclopropyl)-4-(2-oxa-7-azaspiro[3.5]nonan-7-yl)-1H-indazole-6-sulfonamide] | < 1000 nM
18 | < 100 nM | O=S(=O)(NC1(C(F)F)CC1)c1cc(N2CCC3(CC2)COC3)n2cnc(-c3nnc(C(F)F)s3)c2c1 [Example 35, 1-(5-(difluoromethyl)-1,3,4-thiadiazol-2-yl)-N-(1-(difluoromethyl)cyclopropyl)-5-(2-oxa-7-azaspiro[3.5]nonan-7-yl)imidazo[1,5-a]pyridine-7-sulfonamide] | < 1000 nM

Reference: patent US20260356835A1, “BICYCLIC HETEROARYL COMPOUNDS” (QuantX Biosciences US, Inc., priority 2023, published 2026)
